Reference: ChEMBL document CHEMBL1201862, “PubChem BioAssay data set” (2004)
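96-well plates; 48 h exposure; 5 concentrations. Endpoints by linear interpolation between flanking doses. Not reached: highest tested concentration assigned. GI50: concentration for 50% inhibition of growth.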 Active and inactive are the calls of the source. Rule as the data show it: active = GI50 up to about 1.1 µM and inactive = higher.

Legend:
Assay in all cases: DTP human tumour cell line panel, 48 h
[1] = test system: CAKI-1
[2] = test system: COLO 205
[3] = test system: EKVX
[4] = test system: HCT-15
[5] = test system: Hs-578T
[6] = test system: LOX IMVI
[7] = test system: M14
[8] = test system: MCF7
[9] = test system: Malme-3M
[10] = test system: NCI-H226
[11] = test system: NCI/ADR-RES
[12] = test system: OVCAR-8
[13] = test system: SK-OV-3
[14] = test system: SN12C
[15] = test system: SNB-75
[16] = test system: T47D
[17] = test system: UACC-257
[18] = test system: UO-31
[19] = test system: TK-10
[20] = test system: U-251

## COc1ccc(OC)c(NC(=O)c2c(Cl)c(Cl)c(Cl)c(Cl)c2-c2nc3ccccc3[nH]2)c1
[1]
  GI50: > 100 µM (inactive)
[2]
  GI50: > 100 µM (inactive)
[3]
  GI50: > 100 µM (inactive)
[4]
  GI50: > 100 µM
[5]
  GI50: > 100 µM (inactive)
[6]
  GI50: > 100 µM (inactive)
[7]
  GI50: > 100 µM (inactive)
[8]
  GI50: 76.7 µM (inactive)
[9]
  GI50: > 100 µM (inactive)
[10]
  GI50: > 100 µM (inactive)
[11]
  GI50: > 100 µM (inactive)
[12]
  GI50: 56.9 µM (inactive)
[13]
  GI50: > 100 µM (inactive)
[14]
  GI50: 80.4 µM (inactive)
[15]
  GI50: > 100 µM (inactive)
[16]
  GI50: > 100 µM (inactive)
[17]
  GI50: > 100 µM (inactive)
[18]
  GI50: > 100 µM (inactive)

## COc1ccccc1Cn1nc(OC)c2cc([N+](=O)[O-])ccc21
[1]
  GI50: 15 µM (inactive)
[2]
  GI50: > 100 µM (inactive)
[3]
  GI50: 35.6 µM (inactive)
[4]
  GI50: > 70.1 µM
[5]
  GI50: 3.61 µM (inactive)
[6]
  GI50: > 100 µM (inactive)
[7]
  GI50: > 100 µM (inactive)
[8]
  GI50: 45.8 µM (inactive)
[9]
  GI50: > 87.5 µM (inactive)
[10]
  GI50: 42.1 µM (inactive)
[11]
  GI50: 59.3 µM (inactive)
[12]
  GI50: 31.1 µM (inactive)
[14]
  GI50: > 69 µM (inactive)
[15]
  GI50: 4.16 µM (inactive)
[16]
  GI50: > 100 µM (inactive)
[19]
  GI50: 12.5 µM (inactive)
[20]
  GI50: 12 µM (inactive)
[17]
  GI50: > 74 µM (inactive)
[18]
  GI50: > 35.1 µM (inactive)

## CN(C)c1cc[n+](-c2nc([N-]C(=O)C(F)(F)F)nc3c2ncn3C2CC(O)C(CO)O2)cc1 (configuration not stated)
[2]
  GI50: > 100 µM (inactive)
[3]
  GI50: > 100 µM (inactive)
[4]
  GI50: > 100 µM
[5]
  GI50: > 100 µM (inactive)
[6]
  GI50: > 100 µM (inactive)
[7]
  GI50: > 100 µM (inactive)
[8]
  GI50: > 100 µM (inactive)
[9]
  GI50: > 100 µM (inactive)
[10]
  GI50: > 100 µM (inactive)
[11]
  GI50: > 100 µM (inactive)
[12]
  GI50: > 100 µM (inactive)
[13]
  GI50: > 100 µM (inactive)
[14]
  GI50: > 100 µM (inactive)
[15]
  GI50: > 100 µM (inactive)
[16]
  GI50: > 100 µM (inactive)
[19]
  GI50: > 100 µM (inactive)
[20]
  GI50: > 100 µM (inactive)
[18]
  GI50: > 100 µM (inactive)

## CC(C)(CCC(C)(C)N1OC1c1ccccc1)N1OC1c1ccccc1 (configuration not stated)
[1]
  GI50: 23.4 µM (inactive)
[2]
  GI50: 47.2 µM (inactive)
[4]
  GI50: 28.6 µM
[5]
  GI50: 36.2 µM (inactive)
[6]
  GI50: 26.4 µM (inactive)
[8]
  GI50: 28.7 µM (inactive)
[9]
  GI50: > 100 µM (inactive)
[10]
  GI50: 76.9 µM (inactive)
[11]
  GI50: 58.6 µM (inactive)
[12]
  GI50: > 100 µM (inactive)
[13]
  GI50: 62.8 µM (inactive)
[14]
  GI50: > 100 µM (inactive)
[15]
  GI50: > 100 µM (inactive)
[16]
  GI50: 41.1 µM (inactive)
[19]
  GI50: 22.8 µM (inactive)
[20]
  GI50: 72.9 µM (inactive)
[17]
  GI50: 25.1 µM (inactive)
[18]
  GI50: 20 µM (inactive)

## CCCCCCCCCCCCCCCCOP(=O)([O-])OCC[N+](C)(C)C1CC(C)(C)N(O)C(C)(C)C1
[1]
  GI50: > 100 µM (inactive)
[2]
  GI50: > 100 µM (inactive)
[3]
  GI50: > 100 µM (inactive)
[4]
  GI50: > 100 µM
[5]
  GI50: > 100 µM (inactive)
[7]
  GI50: > 100 µM (inactive)
[8]
  GI50: > 100 µM (inactive)
[9]
  GI50: > 100 µM (inactive)
[10]
  GI50: > 100 µM (inactive)
[11]
  GI50: > 100 µM (inactive)
[12]
  GI50: > 100 µM (inactive)
[13]
  GI50: > 100 µM (inactive)
[15]
  GI50: > 100 µM (inactive)
[16]
  GI50: > 100 µM (inactive)
[19]
  GI50: > 100 µM (inactive)
[20]
  GI50: > 100 µM (inactive)
[17]
  GI50: > 100 µM (inactive)
[18]
  GI50: > 100 µM (inactive)

## O=C(O)C(Cc1c[nH]cn1)N1C(=O)c2ccccc2C1=O (configuration not stated)
[1]
  GI50: > 100 µM (inactive)
[2]
  GI50: > 100 µM (inactive)
[3]
  GI50: > 100 µM (inactive)
[4]
  GI50: > 100 µM
[5]
  GI50: > 100 µM (inactive)
[6]
  GI50: > 100 µM (inactive)
[7]
  GI50: > 100 µM (inactive)
[8]
  GI50: > 100 µM (inactive)
[9]
  GI50: 18.9 µM (inactive)
[10]
  GI50: > 100 µM (inactive)
[11]
  GI50: > 100 µM (inactive)
[12]
  GI50: > 100 µM (inactive)
[14]
  GI50: > 100 µM (inactive)
[15]
  GI50: > 100 µM (inactive)
[16]
  GI50: > 100 µM (inactive)
[19]
  GI50: > 100 µM (inactive)
[20]
  GI50: > 100 µM (inactive)
[17]
  GI50: > 100 µM (inactive)
[18]
  GI50: > 100 µM (inactive)

## CCOC(=O)c1cc(=O)c2cccc3c2n1CCS3
[1]
  GI50: > 100 µM (inactive)
[2]
  GI50: > 100 µM (inactive)
[3]
  GI50: > 100 µM (inactive)
[4]
  GI50: > 100 µM
[5]
  GI50: > 100 µM (inactive)
[6]
  GI50: > 100 µM (inactive)
[7]
  GI50: > 100 µM (inactive)
[8]
  GI50: > 100 µM (inactive)
[10]
  GI50: > 100 µM (inactive)
[11]
  GI50: > 100 µM (inactive)
[12]
  GI50: > 100 µM (inactive)
[13]
  GI50: > 100 µM (inactive)
[14]
  GI50: > 100 µM (inactive)
[15]
  GI50: > 100 µM (inactive)
[16]
  GI50: > 100 µM (inactive)
[19]
  GI50: > 100 µM (inactive)
[20]
  GI50: > 100 µM (inactive)
[17]
  GI50: > 100 µM (inactive)
[18]
  GI50: 77.8 µM (inactive)

## O=c1ccc2c(Cl)cccc2o1
[1]
  GI50: > 100 µM (inactive)
[2]
  GI50: > 100 µM (inactive)
[3]
  GI50: 58.3 µM (inactive)
[5]
  GI50: 75.5 µM (inactive)
[6]
  GI50: > 100 µM (inactive)
[7]
  GI50: > 100 µM (inactive)
[8]
  GI50: > 100 µM (inactive)
[9]
  GI50: > 100 µM (inactive)
[10]
  GI50: > 100 µM (inactive)
[11]
  GI50: > 100 µM (inactive)
[12]
  GI50: > 100 µM (inactive)
[14]
  GI50: > 100 µM (inactive)
[15]
  GI50: > 100 µM (inactive)
[16]
  GI50: 46.7 µM (inactive)
[19]
  GI50: > 100 µM (inactive)
[20]
  GI50: > 100 µM (inactive)
[17]
  GI50: > 100 µM (inactive)
[18]
  GI50: > 100 µM (inactive)

## COc1cc(COC(=O)N[C@H](C(=O)O)C(C)(C)C)c([N+](=O)[O-])cc1OC
[2]
  GI50: > 100 µM (inactive)
[3]
  GI50: > 100 µM (inactive)
[4]
  GI50: > 100 µM
[5]
  GI50: > 100 µM (inactive)
[7]
  GI50: > 100 µM (inactive)
[8]
  GI50: > 100 µM (inactive)
[9]
  GI50: > 100 µM (inactive)
[10]
  GI50: > 100 µM (inactive)
[11]
  GI50: > 100 µM (inactive)
[12]
  GI50: > 100 µM (inactive)
[13]
  GI50: > 100 µM (inactive)
[14]
  GI50: > 100 µM (inactive)
[15]
  GI50: > 100 µM (inactive)
[16]
  GI50: > 100 µM (inactive)
[19]
  GI50: > 100 µM (inactive)
[20]
  GI50: > 100 µM (inactive)
[17]
  GI50: > 100 µM (inactive)
[18]
  GI50: > 100 µM (inactive)

## COc1ccc(C2SC(=N)Nc3c2c(C)nn3C(=O)c2ccc(Cl)cc2)cc1OC (configuration not stated)
[1]
  GI50: > 10 µM (inactive)
[2]
  GI50: > 10 µM (inactive)
[3]
  GI50: > 10 µM (inactive)
[4]
  GI50: > 10 µM
[5]
  GI50: > 10 µM (inactive)
[6]
  GI50: > 10 µM (inactive)
[7]
  GI50: > 10 µM (inactive)
[8]
  GI50: > 10 µM (inactive)
[9]
  GI50: > 10 µM (inactive)
[10]
  GI50: > 10 µM (inactive)
[11]
  GI50: > 10 µM (inactive)
[12]
  GI50: > 10 µM (inactive)
[13]
  GI50: > 10 µM (inactive)
[14]
  GI50: > 10 µM (inactive)
[15]
  GI50: > 10 µM (inactive)
[16]
  GI50: > 10 µM (inactive)
[19]
  GI50: > 10 µM (inactive)
[20]
  GI50: > 10 µM (inactive)
[17]
  GI50: > 10 µM (inactive)

## CCCCc1c(N(C)C)c(OC(C)=O)c(-c2cn(C)c3ccccc23)oc1=O
[1]
  GI50: 30.7 µM (inactive)
[2]
  GI50: 19.1 µM (inactive)
[3]
  GI50: 26.1 µM (inactive)
[4]
  GI50: 19.4 µM
[5]
  GI50: 43 µM (inactive)
[7]
  GI50: 16.8 µM (inactive)
[8]
  GI50: 13.1 µM (inactive)
[9]
  GI50: 24.8 µM (inactive)
[10]
  GI50: 8.71 µM (inactive)
[11]
  GI50: 20.3 µM (inactive)
[13]
  GI50: 32.4 µM (inactive)
[14]
  GI50: 24.5 µM (inactive)
[15]
  GI50: 25.1 µM (inactive)
[16]
  GI50: 29.6 µM (inactive)
[19]
  GI50: 40 µM (inactive)
[20]
  GI50: 22 µM (inactive)
[17]
  GI50: 22.5 µM (inactive)
[18]
  GI50: 20.8 µM (inactive)
